Experimental data: the supplement of paper PMC7840683
Where a name gives a salt, the structure may show the parent alone. ± gives the standard deviation of the averaged measurements.

Test system: HepaRG
Experiment: LDH release cytotoxicity, % of total lysis control; higher = more cytotoxic
Conditions: 48 h
Method in brief: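 Single-lot HepaRG cells on collagen I-coated 96-well plates were exposed for 48 h in duplicate, in serum-free induction medium with 0.5% DMSO, to eight-point half-log series (test chemicals top 100 µM). Total lysis wells received 0.1% Triton X, and LDH leakage into 50 µL spent medium was read as resorufin fluorescence (CytoTox-ONE, Tecan Safire). Percent cytotoxicity was normalized to on-plate vehicle and total lysis controls and averaged over the duplicates.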

| Structure (SMILES) | LDH release cytotoxicity (0.03162 µM) | LDH release cytotoxicity (0.1 µM) | LDH release cytotoxicity (0.3162278 µM) | LDH release cytotoxicity (1 µM) | LDH release cytotoxicity (3.16228 µM) | LDH release cytotoxicity (10 µM) | LDH release cytotoxicity (31.6228 µM) | LDH release cytotoxicity (100 µM) | other results |
| --- | --- | --- | --- | --- | --- | --- | --- | --- | --- |
| CN(C)C(=O)Nc1cccc(C(F)(F)F)c1 [Fluometuron] | -0.415 ± 0.25% | -0.308 ± 0.37% | -0.631 ± 0.97% | -0.564 ± 1.4% | -0.69 ± 0.18% | 0.366 ± 0.1% | -0.569 ± 0.084% | 0.377 ± 0.36% | – |
| CC(=O)N1CCN(c2ccc(OCC3COC(Cn4ccnc4)(c4ccc(Cl)cc4Cl)O3)cc2)CC1 (configuration not stated) [Ketoconazole] | -3.06 ± 0.81% | -3.11 ± 0.33% | -2.22 ± 0.27% | -2.59 ± 0.32% | -2.26 ± 0.88% | 2.6 ± 2.2% | 1.63 ± 0.66% | 80.8 ± 7.1% | – |
| O=C1C2(Cl)C3(Cl)C4(Cl)C(Cl)(Cl)C5(Cl)C3(Cl)C1(Cl)C5(Cl)C24Cl (configuration not stated) [Kepone] | -0.309 ± 0.28% | 0.458 ± 0.64% | -0.526 ± 0.16% | -0.604 ± 0.8% | -0.552 ± 0.22% | -0.815 ± 0.31% | 8.06 ± 1.2% | 90.1 ± 3.4% | – |
| O=[N+]([O-])C(Br)(CO)CO [Bronopol] | – | -3.38 ± 2.4% | – | -3.3 ± 0.87% | -3.31 ± 0.59% | -2.52 ± 1.9% | -0.61 ± 0.22% | 0.628 ± 0.21% | LDH release cytotoxicity (0.031623 µM): -1.83 ± 0.79%; LDH release cytotoxicity (0.316228 µM): -2.69 ± 1.3% |
| CC1(C)C(C=C(Cl)Cl)C1C(=O)OCc1cccc(Oc2ccccc2)c1 (configuration not stated) [Permethrin] | -0.121 ± 0.81% | -0.859 ± 2% | -0.0615 ± 0.15% | -1.15 ± 0.33% | -1.16 ± 0.27% | -1.02 ± 1% | -1.28 ± 0.3% | -0.44 ± 0.19% | – |
| CC(Cl)(Cl)C(=O)O [Dalapon] | -1.01 ± 0.44% | -0.953 ± 0.67% | -0.84 ± 0.36% | -0.409 ± 0.058% | -0.505 ± 0.31% | 0.644 ± 1.2% | 1.01 ± 1.3% | 0.962 ± 1.9% | – |
| C#CCOS(=O)OC1CCCCC1Oc1ccc(C(C)(C)C)cc1 (configuration not stated) [Propargite] | -0.16 ± 0.35% | -0.456 ± 1.3% | -0.537 ± 0.23% | 0.246 ± 0.3% | -0.49 ± 0.87% | -0.575 ± 0.68% | 62.8 ± 4% | 83.83 ± 0.65% | – |
| CCN(CC)CCOc1ccc(C(=C(Cl)c2ccccc2)c2ccccc2)cc1 [Clomiphene citrate (1:1)] | – | – | – | – | – | – | – | – | LDH release cytotoxicity (0.0265631 µM): -2.02 ± 0.85%; LDH release cytotoxicity (0.084 µM): -1.22 ± 1.1%; LDH release cytotoxicity (0.265631 µM): -0.767 ± 0.54%; LDH release cytotoxicity (0.84 µM): -1.18 ± 0.029%; LDH release cytotoxicity (2.6563132 µM): -0.65 ± 0.39%; LDH release cytotoxicity (8.4 µM): -1.17 ± 0.63%; LDH release cytotoxicity (26.563132 µM): 9.07 ± 8.3%; LDH release cytotoxicity (84 µM): 95.2 ± 1.5% |
| CCN(Cc1cccnc1)C(=O)c1cccc(Cl)c1C1(C)C(=O)N(Cc2ccc(OC)cc2OC)c2ccc(Cl)cc21 (configuration not stated) | – | – | – | – | – | – | – | – | LDH release cytotoxicity (0.02988 µM): -0.884 ± 0.23%; LDH release cytotoxicity (0.0945 µM): -1.62 ± 0.57%; LDH release cytotoxicity (0.298835 µM): -1.35 ± 0.017%; LDH release cytotoxicity (0.945 µM): -1.68 ± 0.046%; LDH release cytotoxicity (2.98835 µM): -2.31 ± 0.18%; LDH release cytotoxicity (9.45 µM): 1.33 ± 0.092%; LDH release cytotoxicity (29.8835 µM): 7.13 ± 1.4%; LDH release cytotoxicity (94.5 µM): 11.6 ± 0.98% |
| COc1ccccc1N [2-Anisidine] | -1.27 ± 0.34% | -0.978 ± 0.2% | -0.111 ± 0.059% | -0.865 ± 1.6% | -1.04 ± 0.64% | 0.222 ± 0.33% | 0.835 ± 0.33% | 4.39 ± 0.47% | – |
| Cc1ccc(N=CN(C)C=Nc2ccc(C)cc2C)c(C)c1 [Amitraz] | -0.945 ± 0.9% | -1.23 ± 0.17% | -2.67 ± 0.32% | -1.98 ± 0.68% | -2.06 ± 0.065% | -1.45 ± 0.35% | -0.79 ± 0.2% | 1.17 ± 1.8% | – |
| NC(=O)O [Ammonium carbamate] | – | -2.14 ± 1.1% | – | -2.11 ± 1.4% | -2.31 ± 0.54% | -1.92 ± 0.74% | -0.516 ± 0.34% | 0.311 ± 0.094% | LDH release cytotoxicity (0.031623 µM): -0.98 ± 0.56%; LDH release cytotoxicity (0.316228 µM): -3.38 ± 0.37% |
| O=C1CCCO1 [4-Butyrolactone] | -0.251 ± 0.26% | -0.513 ± 0.22% | -0.359 ± 0.74% | -0.517 ± 0.14% | -0.65 ± 0.32% | 0.21 ± 0.013% | -0.668 ± 0.54% | 1.06 ± 1.1% | – |
| CC(COCC(C)OC(=O)c1ccccc1)OC(=O)c1ccccc1 (configuration not stated) [Di(propylene glycol) dibenzoate] | -0.851 ± 0.69% | -1.49 ± 0.45% | -1.08 ± 0.15% | -1.01 ± 0.013% | -1.58 ± 0.024% | -1.58 ± 0.33% | -1.03 ± 1.1% | 0.42 ± 1.6% | – |
| Nc1ccccc1N [1,2-Phenylenediamine] | -3.74 ± 0.12% | -3.27 ± 0.9% | -2.8 ± 0.61% | -1.88 ± 0.13% | -3.1 ± 0.2% | -2.74 ± 0.21% | -2.23 ± 1.2% | -1.05 ± 2.2% | – |
| Cc1cc(CCN2CCN(c3nsc4ccccc34)CC2)cc2c1NC(=O)CC2(C)C | -0.898 ± 0.3% | -1.13 ± 1.4% | -0.946 ± 0.34% | -0.828 ± 0.57% | -0.925 ± 0.38% | -1.14 ± 0.57% | -0.566 ± 0.6% | -0.469 ± 0.49% | – |
| COP(=S)(OC)SCN1C(=O)c2ccccc2C1=O [Phosmet] | -1.04 ± 0.14% | -1.58 ± 0.89% | -0.933 ± 0.42% | -1.6 ± 0.93% | -1.56 ± 0.51% | -1.14 ± 0.52% | -1.65 ± 0.99% | 0.331 ± 0.7% | – |
| CN=C=S [Methyl isothiocyanate] | – | -1.72 ± 1% | – | -4.608 ± 0.021% | -3.71 ± 0.42% | -2.9 ± 0.8% | 0.153 ± 0.77% | 49.2 ± 6.8% | LDH release cytotoxicity (0.031623 µM): -2.69 ± 0.49%; LDH release cytotoxicity (0.316228 µM): -3.56 ± 1.4% |
| c1cc[n+]2c(c1)-c1cccc[n+]1CC2 [Diquat dibromide monohydrate] | -1.01 ± 0.048% | 0.359 ± 1.1% | 0.818 ± 0.33% | 0.472 ± 0.19% | 0.215 ± 0.51% | 1.64 ± 0.66% | -0.425 ± 0.39% | 2.13 ± 0.58% | – |
